One experiment concerns the target T1, α-glucosidase (Saccharomyces cerevisiae, UniProt P53341).
T1 construct: purchased Sigma-Aldrich Co
Nature of the experiment: biochemical. As to conditions: for inhibition at 500 µM: read-out: α-Glucosidase inhibition. Here is the method:
(§1) The other reagents used in this experiment are analytically pure reagents purchased from Sigma-Aldrich Co. (St. Louis, MI, USA) unless specified otherwise.
The in vitro α-glucosidase activity assay was determined using spectrophotometry, as previously reported, with only minor modifications. In phosphate buffer with a pH of 6.8, 0.5 U/mL of α-glucosidase and the appropriate quantity of p-nitrophenyl-D-glucopyranoside (pNGP) were produced. […] Gradient dilution with a phosphate-buffered solution was used to create sample solutions of various concentrations. First, different concentrations of compound (10 μL), an enzyme solution (40 μL), and potassium phosphate buffer (100 μL) were pre-incubated in 96-well plates at 37 °C for 10 min.
(§2) The enzymatic inhibitory activity of the tested compounds was calculated using the following formula: Inhibition %=[(Abs control−Abs sample)/Abs control]×100
(§3) The IC50 values of the tested compounds were calculated using nonlinear fitting (logit method).

Another experiment deals with T2, α-amylase (Sus scrofa, UniProt P00690).
T2 construct: α-amylase (EC 232-565-6, powder, ≥5 units/mg solid) isolated from porcine pancreas; purchased Sigma-Aldrich Co; host or cells: porcine pancreas
T2 sequence (P00690 16-511): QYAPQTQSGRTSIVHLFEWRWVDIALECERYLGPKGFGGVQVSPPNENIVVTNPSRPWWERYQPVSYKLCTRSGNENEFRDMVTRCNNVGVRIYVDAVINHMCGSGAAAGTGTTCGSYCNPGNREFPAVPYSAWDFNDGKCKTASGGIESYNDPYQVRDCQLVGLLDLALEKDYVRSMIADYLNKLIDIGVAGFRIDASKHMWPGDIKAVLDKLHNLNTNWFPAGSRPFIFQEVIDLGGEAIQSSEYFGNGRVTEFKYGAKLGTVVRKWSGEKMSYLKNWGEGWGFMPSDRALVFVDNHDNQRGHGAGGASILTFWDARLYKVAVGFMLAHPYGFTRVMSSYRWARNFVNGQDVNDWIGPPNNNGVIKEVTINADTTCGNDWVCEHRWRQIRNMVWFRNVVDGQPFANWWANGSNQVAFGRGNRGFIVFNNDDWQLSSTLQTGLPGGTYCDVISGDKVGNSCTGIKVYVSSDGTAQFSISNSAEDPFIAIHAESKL
Nature of the experiment: In vitro α-amylase activity assay (G3-CNP, absorbance 405 nm). Format: biochemical, porcine. The settings on record: for inhibition at 500 µM: read-out: α-Amylase inhibition. The protocol:
as §1
The in vitro […] activity assay was determined using spectrophotometry, as previously reported, with only minor modifications. A total of 5 U/mL of α-amylase and the appropriate quantity of 2-chloro-4-nitrophenyl α-D-maltotrioside (G3-CNP) were produced. […] Gradient dilution with a phosphate-buffered solution was used to create sample solutions of various concentrations. First, different concentrations of compound (10 μL), an enzyme solution (40 μL), and potassium phosphate buffer (100 μL) were pre-incubated in 96-well plates at 37 °C for 10 min.
as §2, §3

Another experiment relates to db/db mice. Nature of the experiment: Postprandial blood glucose level measurement after oral starch load. The settings on record: 100 mg/kg, oral starch 2 g/kg. Format: in vivo. Here is the method:
db/db mice and C57BL/6J mice were purchased f0rom Beijing Zhishan Health Medical Research Institute. The animal testing procedure was approved by Beijing Huayuan Times Technology Co., Ltd Ethics Committee on the Management and Welfare of Laboratory Animals. (Ethics review batch number: HYSD2023-04) and strictly follows the local and national codes of ethics. All mice were placed in a control chamber at 25 °C and 60% relative humidity with a light/dark period of 12/12 h. During this period, all mice had free access to normal feed and water. […] All mice were given starch (2 g/kg) orally 60 min after treatment. Blood samples were taken from the caudal vein and blood glucose was measured after 0, 30, 60, and 120 min. The area under the curve (AUC) was calculated using the trapezoidal rule.

The mark [1] stands for this setting: read-out: α-amylase inhibition IC50±SEM.
Setting [2] is: read-out: α-glucosidase inhibition IC50±SEM.

Read-outs that look alike come from different tables or passages of the source. Bounds are passed on as bounds.

A word on the inhibition: it is the percentage by which the read-out fell short of the control. As a reminder, the IC50 is the concentration at which inhibition is half-maximal.

T1 sequence (P53341 whole entry): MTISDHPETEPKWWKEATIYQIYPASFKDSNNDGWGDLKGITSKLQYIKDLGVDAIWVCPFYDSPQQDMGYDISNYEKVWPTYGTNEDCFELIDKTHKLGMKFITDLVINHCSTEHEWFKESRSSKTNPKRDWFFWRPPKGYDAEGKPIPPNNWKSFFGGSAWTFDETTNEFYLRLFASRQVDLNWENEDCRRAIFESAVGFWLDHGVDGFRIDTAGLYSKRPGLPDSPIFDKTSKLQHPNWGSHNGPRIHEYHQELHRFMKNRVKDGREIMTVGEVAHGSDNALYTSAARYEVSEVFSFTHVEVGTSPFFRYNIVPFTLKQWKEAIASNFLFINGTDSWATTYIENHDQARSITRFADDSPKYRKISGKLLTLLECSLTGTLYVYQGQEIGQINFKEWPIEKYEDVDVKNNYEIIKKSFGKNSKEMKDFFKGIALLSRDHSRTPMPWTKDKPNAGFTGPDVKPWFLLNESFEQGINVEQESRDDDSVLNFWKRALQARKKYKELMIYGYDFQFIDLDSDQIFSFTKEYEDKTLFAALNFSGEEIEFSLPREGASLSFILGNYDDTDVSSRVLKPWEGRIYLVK

For the compound `C[C@H]1O[C@H](O[C@H]2[C@H](O)[C@@H](O)[C@@H](O[C@H]3[C@H](O)[C@@H](O)C(O)O[C@@H]3CO)O[C@@H]2CO)[C@H](O)[C@@H](O)[C@@H]1N[C@H]1C=C(CO)[C@@H](O)[C@H](O)[C@H]1O` (stereo partly drawn) [Acarbose, reference compound], the inhibition at 500 µM at α-glucosidase amounted to 49%; at α-amylase, 99%. The “glucose AUC” value in the experiment on db/db mice is 43.0 mmol·h/L. Besides, the “reduction of glucose AUC of diabetic mice” value in the experiment with db/db mice (vs model) stood at 20.31%.

With `O=c1cc(-c2ccc(O)cc2)oc2cc(O[C@@H]3O[C@H](CO)[C@@H](O)[C@H](O)[C@H]3O)cc(O)c12` [Apigetrin], at α-glucosidase, the midpoint of inhibition, the IC50, lay at 187 ± 6.93 µM and the inhibition at 500 µM came out at 74%. Besides, the “selectivity for glucosidase over α-amylase among the 12 compounds” value on α-glucosidase (inhibition at 500 µM of both enzymes compared) is listed as “selective inhibition of glucosidase”. Also, the inhibition at 500 µM on α-amylase (at 500 µM) is 12%.

Regarding `O=c1c(O[C@@H]2O[C@@H](CO)[C@H](O)[C@H]2O)c(-c2ccc(O)c(O)c2)oc2cc(O)cc(O)c12` [Avicularin], the IC50 against α-glucosidase and against α-amylase was above 500 µM each time. Further, the values for the inhibition at 500 µM at α-glucosidase and on α-amylase (at 500 µM) were 33% and 19%, respectively.

Consider `O=C(O[C@@H]1Cc2c(O)cc(O)cc2O[C@@H]1c1ccc(O)c(O)c1)c1cc(O)c(O)c(O)c1` [Epicatechin gallate], for which the IC50 on α-glucosidase and on α-amylase (setting [1]) was above 250 µM throughout. For the same compound, the inhibition at 500 µM on α-glucosidase was 61%; on α-amylase (at 500 µM), 62%.

`O=c1c(O[C@@H]2O[C@H](CO)[C@H](O)[C@H](O)[C@H]2O)c(-c2ccc(O)c(O)c2)oc2cc(O)cc(O)c12` [Hyperoside]: the IC50 at α-glucosidase and at α-amylase (setting [1]) was above 500 µM each time. The results for the inhibition at 500 µM on α-glucosidase and at α-amylase (at 500 µM) were 48% and 28%, respectively.

On to `O=c1cc(-c2ccc(O)cc2)oc2cc(O)c([C@@H]3O[C@H](CO)[C@@H](O)[C@H](O)[C@H]3O)c(O)c12` [Isovitexin], for which the IC50 against α-amylase was above 500 µM. Besides, the inhibition at 500 µM on α-amylase (at 500 µM) came to 43%.

As for `O=c1cc(-c2ccccc2)oc2cc(O[C@@H]3O[C@H](CO)[C@@H](O)[C@H](O)[C@H]3O)c(O)c(O)c12` [Oroxin A], the inhibition at 500 µM on α-glucosidase is 10%; at α-amylase (at 500 µM), 60%. In addition, the results for the IC50 at α-glucosidase (setting [2]) and at α-amylase (setting [1]) were above 500 µM and above 250 µM, respectively.

For the compound `O=c1c(O)c(-c2ccc(O)c(O)c2)oc2cc(O[C@@H]3O[C@H](CO)[C@@H](O)[C@H](O)[C@H]3O)c(O)c(O)c12` [Quercetagitrin], the inhibition at 500 µM turned out to be 56% on α-glucosidase and 71% on α-amylase (at 500 µM). For the same compound, the half-maximal inhibitory concentration (IC50) on α-glucosidase (setting [2]) is above 250 µM; at α-amylase (setting [1]) it was above 125 µM.

Turning to `C[C@@H]1O[C@@H](Oc2c(-c3ccc(O)c(O)c3)oc3cc(O)cc(O)c3c2=O)[C@H](O)[C@H](O)[C@H]1O` [Quercitrin], the IC50 against α-glucosidase and at α-amylase (setting [1]) was above 500 µM throughout. Also, the results for the inhibition at 500 µM at α-glucosidase and on α-amylase (at 500 µM) were 38% and 22%, respectively.

On to `O=C(O)C1OC(Oc2c(-c3ccc(O)c(O)c3)oc3cc(O)cc(O)c3c2=O)C(O)C(O)C1O` (stereo not drawn) [Quercituron], for which the inhibition at 500 µM was 17% at α-glucosidase and 42% on α-amylase (at 500 µM). Also, the half-maximal inhibitory concentration (IC50) at α-glucosidase (setting [2]) and at α-amylase (setting [1]) was above 500 µM in each case.

`O=c1c(O[C@@H]2O[C@H](CO)[C@H](O)[C@H](O)[C@H]2O)c(-c2ccc(O)cc2)oc2cc(O)cc(O)c12` [Trifolin]: at α-amylase (at 500 µM), the inhibition at 500 µM was determined as 19%. In addition, at α-amylase (setting [1]), the IC50 was above 500 µM.

Regarding Catechin gallate, on α-glucosidase (at 500 µM), the α-Glucosidase inhibition stood at 94%. This compound also displayed a α-Amylase inhibition on α-amylase (at 500 µM) of 82%.

Values taken from article PMC10528180 (Foods, 2023).
